# Laboratory results reported in ChEMBL document CHEMBL1136459, “New antibacterial tetrahydro-4(2H)-thiopyran and thiomorpholine S-oxide and S,S-dioxide phenyloxazolidinones” (Bioorg Med Chem Lett, 2003).
# Key:
# Haemophilus influenzae [1] = test: In vitro antibacterial activity against Haemophilia influenzae strains ATCC 30063 and ATCC 31517; assay type: functional
# Moraxella catarrhalis [2] = test: In vitro antibacterial activity against Moraxella catarrhalis strains 30607 and 30603 (MC).; assay type: functional
# [3] = tested on: Staphylococcus epidermidis; test: In vitro antibacterial activity against Staphylococcus epidermidis strains UC12084, 30031, and CDC-CNS90 (SE); range is 16-32; assay type: functional
# Staphylococcus aureus [4] = test: In vitro antibacterial activity against Staphylococcus aureus strains UC12673, UC9213, ATCC 29213, and UC9271 (SA); range is 32-64; assay type: functional
# Staphylococcus aureus [5] = test: In vitro antibacterial activity against linezolid-resistant Staphylococcus aureus ATCC 29213 (LRSA).; assay type: functional
# Enterococcus faecium = test: In vitro antibacterial activity against vancomycin-resistant Enterococcus faecium UC12712 (VRE).
# Streptococcus pneumoniae [6] = test: In vitro antibacterial activity against Streptococcus pneumoniae strains ATCC 6305 and 31573 (SPN); range is 8-16
# Haemophilus influenzae [7] = test: In vitro antibacterial activity against Haemophilia influenzae strains 30063 and ATCC 31517 (HI); range is 16-64; assay type: functional
# Moraxella catarrhalis [8] = test: In vitro antibacterial activity against Moraxella catarrhalis strains 30607 and 30603 (MC); range is 16-32; assay type: functional
# [9] = tested on: Staphylococcus epidermidis; test: In vitro antibacterial activity against Staphylococcus epidermidis strains UC12084, 30031, and CDC-CNS90 (SE); range is 2-4; assay type: functional
# Staphylococcus aureus [10] = test: In vitro antibacterial activity against Staphylococcus aureus strains UC12673, UC9213, ATCC 29213, and UC9271 (SA); range is 4-16; assay type: functional
# Moraxella catarrhalis [11] = test: In vitro antibacterial activity against Moraxella catarrhalis strains 30607 and 30603 (MC); range is 32-64; assay type: functional
# [12] = tested on: Staphylococcus epidermidis; test: In vitro antibacterial activity against Staphylococcus epidermidis strains UC12084, 30031, and CDC-CNS90 (SE); assay type: functional
# Staphylococcus aureus [13] = test: In vitro antibacterial activity against Staphylococcus aureus strains UC12673, UC9213, ATCC 29213, and UC9271 (SA); range is 8-32; assay type: functional
# [14] = In vivo Volume distribution (Vss) was determined after intravenous administration of compound (9.13+/-0.85 mg/kg) in male Sprague-Dawley rat; assay type: ADME, organism-based; settings: read-out: Vss
# Rattus norvegicus [15] = test: In vivo Volume distribution (Vss) was determined after peroral administration of compound (158.5+/-2 mg/kg) in male Sprague-Dawley rat; assay type: ADME, organism-based; settings: po
# Rattus norvegicus [16] = test: In vivo Volume distribution (Vss) was determined after peroral administration of compound (76.4+/-2.6 mg/kg) in male Sprague-Dawley rat; assay type: ADME, organism-based; settings: po
# Rattus norvegicus [17] = test: In vivo Tmax was determined after peroral administration of compound (76.4+/-2.6 mg/kg) in male Sprague-Dawley rat; assay type: ADME, organism-based; settings: po
# Rattus norvegicus [18] = test: In vivo Clearance (Cl) was determined after intravenous administration of compound (9.13+/-0.85 mg/kg) in male Sprague-Dawley rat; assay type: ADME, organism-based
# Rattus norvegicus [19] = test: In vivo Cmax was determined after peroral administration of compound (76.4+/-2.6 mg/kg) in male Sprague-Dawley rat; assay type: ADME, organism-based; parameters: route oral; settings: po
# [20] = In vivo Oral bioavailability (F)was determined after peroral administration of compound (158.5+/-2 mg/kg) in male Sprague-Dawley rat; assay type: ADME, organism-based
# [21] = In vivo Oral bioavailability (F)was determined after peroral administration of compound (19.01+/-0.31 mg/kg) in male Sprague-Dawley rat; assay type: ADME, organism-based
# [22] = In vivo Oral bioavailability (F)was determined after peroral administration of compound (76.4+/-2.6 mg/kg) in male Sprague-Dawley rat; assay type: ADME, organism-based
# Rattus norvegicus [23] = test: In vivo Tmax was determined after intravenous administration of compound (9.13+/-0.85 mg/kg) in male Sprague-Dawley rat; assay type: ADME, organism-based
# [24] = In vivo Tmax was determined after peroral administration of compound (158.5+/-2 mg/kg) in male Sprague-Dawley rat; assay type: ADME, organism-based; settings: po
# Rattus norvegicus [25] = test: In vivo Tmax was determined after peroral administration of compound (19.01+/-0.31 mg/kg) in male Sprague-Dawley rat; assay type: ADME, organism-based; settings: po
# Rattus norvegicus [26] = test: In vivo Area under curve (AUC) was determined after intravenous administration of compound (9.13+/-0.85 mg/kg) in male Sprague-Dawley rat; assay type: ADME, organism-based
# Rattus norvegicus [27] = test: In vivo Area under curve (AUC) was determined after peroral administration of compound (19.01+/-0.31 mg/kg) in male Sprague-Dawley rat; assay type: ADME, organism-based; settings: po
# Rattus norvegicus [28] = test: In vivo t1/2 was determined after intravenous administration of compound (9.13+/-0.85 mg/kg) in male Sprague-Dawley rat; assay type: ADME, organism-based
# [29] = In vivo t1/2 was determined after peroral administration of compound (158.5+/-2 mg/kg) in male Sprague-Dawley rat; assay type: ADME, organism-based; settings: po
# Rattus norvegicus [30] = test: In vivo t1/2 was determined after peroral administration of compound (19.01+/-0.31 mg/kg) in male Sprague-Dawley rat; assay type: ADME, organism-based; settings: po
# Rattus norvegicus [31] = test: In vivo Cmax was determined after intravenous administration of compound (9.13+/-0.85 mg/kg) in male Sprague-Dawley rat; assay type: ADME, organism-based; parameters: route intravenous
# [32] = In vivo Cmax was determined after peroral administration of compound (158.5+/-2 mg/kg) in male Sprague-Dawley rat; assay type: ADME, organism-based; parameters: route oral; settings: po
# Rattus norvegicus [33] = test: In vivo Cmax was determined after peroral administration of compound (19.01+/-0.31 mg/kg) in male Sprague-Dawley rat; assay type: ADME, organism-based; parameters: route oral; settings: po
# Rattus norvegicus [34] = test: In vivo Area under curve (AUC) was determined after peroral administration of compound (76.4+/-2.6 mg/kg) in male Sprague-Dawley rat; assay type: ADME, organism-based; settings: po
# Haemophilus influenzae [35] = test: In vitro antibacterial activity against Haemophilia influenzae strains 30063 and ATCC 31517 (HI); range is 4-8; assay type: functional
# Moraxella catarrhalis [36] = test: In vitro antibacterial activity against Moraxella catarrhalis strains 30607 and 30603 (MC); range is 4-8; assay type: functional
# Mus musculus = test: In vivo Efficacy of compound after peroral administration in mouse; assay type: functional; settings: po
# [37] = tested on: Staphylococcus epidermidis; test: In vitro antibacterial activity against Staphylococcus epidermidis strains UC12084, 30031, and CDC-CNS90 (SE); range is 1-24; assay type: functional
# Staphylococcus aureus [38] = test: In vitro antibacterial activity against Staphylococcus aureus strains UC12673, UC9213, ATCC 29213, and UC9271 (SA); range is 2-4; assay type: functional
# Rattus norvegicus [39] = test: In vivo t1/2 was determined after peroral administration of compound (76.4+/-2.6 mg/kg) in male Sprague-Dawley rat; assay type: ADME, organism-based; settings: po
# Rattus norvegicus [40] = test: In vivo Area under curve (AUC) was determined after oral administration of compound (158.5+/-2 mg/kg) in male Sprague-Dawley rat
# Moraxella catarrhalis [41] = test: In vitro antibacterial activity against Moraxella catarrhalis strains 30607 and 30603 (MC); range is 2-4; assay type: functional
# Streptococcus pneumoniae [42] = test: In vitro antibacterial activity against Streptococcus pneumoniae strains ATCC6305 and 31573 (SPN).
smiles,measurement,setting,value
O=C(NC[C@H]1CN(c2ccc(N3CC[S+]([O-])CC3)c(F)c2)C(=O)O1)c1ccccc1,MIC,Haemophilus influenzae [1],> 64 µg/mL
same,MIC,Moraxella catarrhalis [2],> 64 µg/mL
same,MIC,[3],16 µg/mL
same,MIC,Staphylococcus aureus [4],32 µg/mL
same,MIC,Staphylococcus aureus [5],> 64 µg/mL
same,MIC,Enterococcus faecium,32 µg/mL
same,MIC,Streptococcus pneumoniae [6],8 µg/mL
O=C(/C=C/c1cccnc1)NC[C@H]1CN(c2ccc(C3CCS(=O)(=O)CC3)c(F)c2)C(=O)O1,MIC,Haemophilus influenzae [7],16 µg/mL
same,MIC,Moraxella catarrhalis [8],16 µg/mL
same,MIC,[9],2 µg/mL
same,MIC,Staphylococcus aureus [10],4 µg/mL
same,MIC,Staphylococcus aureus [5],32 µg/mL
same,MIC,Enterococcus faecium,8 µg/mL
CC(=O)Oc1ccc(C(=O)NC[C@H]2CN(c3ccc(C4CC[S+]([O-])CC4)c(F)c3)C(=O)O2)cc1 (stereo partly specified),MIC,Haemophilus influenzae [1],64 µg/mL
same,MIC,Moraxella catarrhalis [11],32 µg/mL
same,MIC,[12],4 µg/mL
same,MIC,Staphylococcus aureus [13],8 µg/mL
same,MIC,Staphylococcus aureus [5],64 µg/mL
same,MIC,Enterococcus faecium,0.06 µg/mL
O=C(NC[C@H]1CN(c2ccc(C3CC[S+]([O-])CC3)c(F)c2)C(=O)O1)C(F)F (stereo partly specified),Vd,[14],1.78 L/kg
same,Vss,Rattus norvegicus [15],29.84 L/kg
same,Vss,Rattus norvegicus [16],29.84 L/kg
same,T max,Rattus norvegicus [17],0.5 h
same,Cl,Rattus norvegicus [18],37.25 mL/min/kg
same,Cmax,Rattus norvegicus [19],8600 ng/mL
same,bioavailability,[20],85.7%
same,bioavailability,[21],77.1%
same,bioavailability,[22],95.1%
same,T max,Rattus norvegicus [23],1.98 min
same,Tmax,[24],0.38 h
same,T max,Rattus norvegicus [25],0.38 h
same,AUC,Rattus norvegicus [26],4090 ng·h/mL
same,AUC,Rattus norvegicus [27],6570 ng·h/mL
same,T1/2,Rattus norvegicus [28],2.9 h
same,half-life,[29],7.93 h
same,T1/2,Rattus norvegicus [30],3.6 h
same,Cmax,Rattus norvegicus [31],15600 ng/mL
same,Cmax,[32],9070 ng/mL
same,Cmax,Rattus norvegicus [33],3470 ng/mL
same,AUC,Rattus norvegicus [34],32400 ng·h/mL
same,MIC,Haemophilus influenzae [35],4 µg/mL
same,MIC,Moraxella catarrhalis [36],4 µg/mL
same,ED50,Mus musculus,6.52 mg/kg
same,MIC,[37],1 µg/mL
same,MIC,Staphylococcus aureus [38],2 µg/mL
same,T1/2,Rattus norvegicus [39],4.25 h
same,MIC,Staphylococcus aureus [5],16 µg/mL
same,MIC,Enterococcus faecium,2 µg/mL
same,AUC,Rattus norvegicus [40],60800 ng·h/mL
CC(=O)NC[C@H]1CN(c2ccc(C3CCS(=O)(=O)CC3)c(F)c2)C(=O)O1,MIC,Haemophilus influenzae [35],4 µg/mL
same,MIC,Moraxella catarrhalis [41],2 µg/mL
same,MIC,[12],0.5 µg/mL
same,MIC,Staphylococcus aureus [38],2 µg/mL
same,MIC,Staphylococcus aureus [5],32 µg/mL
same,MIC,Enterococcus faecium,2 µg/mL
same,MIC,Streptococcus pneumoniae [42],0.5 µg/mL
